Assays:
Bile acid receptor [1] = molecular target: T1, Bile acid receptor (Homo sapiens, UniProt Q96RI1); assay: Partial agonist activity at FXR-LBD-GST (unknown origin) by TR-FRET assay
T1 sequence (Q96RI1 whole entry): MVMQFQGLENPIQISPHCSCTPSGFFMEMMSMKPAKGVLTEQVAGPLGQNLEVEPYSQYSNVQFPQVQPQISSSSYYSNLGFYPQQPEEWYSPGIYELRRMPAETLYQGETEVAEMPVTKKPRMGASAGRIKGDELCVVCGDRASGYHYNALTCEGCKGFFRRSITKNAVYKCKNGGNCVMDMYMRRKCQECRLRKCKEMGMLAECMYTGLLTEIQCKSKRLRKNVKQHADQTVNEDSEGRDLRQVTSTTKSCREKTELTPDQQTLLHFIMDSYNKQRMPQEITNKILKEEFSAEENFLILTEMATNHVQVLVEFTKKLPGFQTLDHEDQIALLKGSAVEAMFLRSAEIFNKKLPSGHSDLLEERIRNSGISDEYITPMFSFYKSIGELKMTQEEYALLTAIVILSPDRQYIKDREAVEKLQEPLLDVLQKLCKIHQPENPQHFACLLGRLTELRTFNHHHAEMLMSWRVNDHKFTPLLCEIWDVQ

Bile acid receptor [2] = molecular target: T1, Bile acid receptor; assay: Antagonist activity at FXR-LBD-GST (unknown origin) in presence of GW4064
[3] = Metabolic stability in mouse liver microsomes assessed as parent compound remaining after 30 mins; type: ADME, Microsome; conditions: read-out: Stability
[4] = Metabolic stability in mouse liver microsomes assessed as half life; type: ADME, Microsome
Bile acid receptor [5] = molecular target: T1, Bile acid receptor; assay: Partial agonist activity at human FXR expressed in Huh-7 cells in presence of CDCA by luciferase reporter gene assay; type: cell-based
[6] = molecular target: T2, Bile acid receptor (Homo sapiens) (UniProt Q96RI1); assay: Partial agonist activity at human FXR expressed in Huh-7 cells in presence of CDCA by luciferase reporter gene assay relative to GW4064; type: cell-based
T2 sequence (whole entry): T1 sequence (Q96RI1 whole entry)

Row | EC50 (Bile acid receptor [1]; read-out: EC50) [nM] | EC50 (Bile acid receptor [1]) | SMILES | other results
1 | 510 | – | CC(C)(C)c1ccc(-n2cnc3c(-c4ccc(C(=O)O)cc4)cccc32)cc1 | IC50 (Bile acid receptor [2]): 9900 nM; remaining at 0.5 h [3]: 36.9%; half-life [4]: 25 min
2 | 490 | – | CC(C)(C)c1ccc(-n2cnc3c(NC(=O)c4ccc(C(=O)O)cc4)cccc32)cc1 | remaining at 0.5 h [3]: 37.9%; half-life [4]: 24.6 min
3 | – | Not Active | CC(C)(C)c1ccc(C(=O)Nc2cccc3c2ncn3Cc2ccc(C(=O)O)cc2)cc1 | –
4 | – | Not Active | CC(C)(C)c1ccc(-c2cccc3c2ncn3-c2ccc(C(=O)O)cc2)cc1 | –
5 | – | Not Active | CC(C)(C)c1ccc(Cn2cnc3ccc(C(=O)Nc4ccc(C(=O)O)cc4)cc32)cc1 | –
6 | – | Not Active | CC(C)(C)c1ccc(C(=O)Nc2cccc3c2ncn3-c2ccc(C(=O)O)cc2)cc1 | –
7 | 410 | – | CC(C)(C)c1ccc(Cn2cnc3c(NC(=O)Cc4ccc(C(=O)O)cc4)cccc32)cc1 | –
8 | 140 | – | CC(C)(C)c1ccc(Cn2cnc3c(NC(=O)c4ccc(C(=O)O)cc4)cccc32)cc1 | EC50 (Bile acid receptor [5]): 2200 nM; Activity [6]: 6%

Continued, compound first:

Row | SMILES | EC50 (Bile acid receptor [1]; read-out: EC50) [nM] | EC50 (Bile acid receptor [1]) | other results
9 | CC(C)(C)c1ccc(NC(=O)c2ccc3ncn(Cc4ccc(C(=O)O)cc4)c3c2)cc1 | – | Not Active | –
10 | CC(C)(C)c1ccc(Cn2cnc3c(-c4ccc(C(=O)O)cc4)cccc32)cc1 | 140 | – | –
11 | CC(C)(C)c1ccc(-c2nc3ccccc3n2Cc2ccc(C(=O)O)cc2)cc1 | – | Not Active | –
12 | CC(C)(C)c1ccc(NC(=O)c2ccc3c(c2)ncn3Cc2ccc(C(=O)O)cc2)cc1 | – | Not Active | –
13 | CC(C)(C)c1ccc(Cn2c(-c3ccc(C(=O)O)cc3)nc3ccccc32)cc1 | – | Not Active | –
14 | CC(C)(C)c1ccc(-c2cccc3c2ncn3Cc2ccc(C(=O)O)cc2)cc1 | 760 | – | –
15 | CC(C)(C)c1ccc(Cn2cnc3cc(C(=O)Nc4ccc(C(=O)O)cc4)ccc32)cc1 | – | Not Active | –

— ChEMBL document CHEMBL5257079, “Discovery of FXR/PPARγ dual partial agonist” (Bioorg Med Chem, 2023)
